For eleven compounds, IC50 results are on record in patent US10227350B2 (Gilead Sciences, Inc., priority 2016, dated 2019).

Chain of PI3Kβ (P42338 whole entry, the tested form may be a part, canonical isoform): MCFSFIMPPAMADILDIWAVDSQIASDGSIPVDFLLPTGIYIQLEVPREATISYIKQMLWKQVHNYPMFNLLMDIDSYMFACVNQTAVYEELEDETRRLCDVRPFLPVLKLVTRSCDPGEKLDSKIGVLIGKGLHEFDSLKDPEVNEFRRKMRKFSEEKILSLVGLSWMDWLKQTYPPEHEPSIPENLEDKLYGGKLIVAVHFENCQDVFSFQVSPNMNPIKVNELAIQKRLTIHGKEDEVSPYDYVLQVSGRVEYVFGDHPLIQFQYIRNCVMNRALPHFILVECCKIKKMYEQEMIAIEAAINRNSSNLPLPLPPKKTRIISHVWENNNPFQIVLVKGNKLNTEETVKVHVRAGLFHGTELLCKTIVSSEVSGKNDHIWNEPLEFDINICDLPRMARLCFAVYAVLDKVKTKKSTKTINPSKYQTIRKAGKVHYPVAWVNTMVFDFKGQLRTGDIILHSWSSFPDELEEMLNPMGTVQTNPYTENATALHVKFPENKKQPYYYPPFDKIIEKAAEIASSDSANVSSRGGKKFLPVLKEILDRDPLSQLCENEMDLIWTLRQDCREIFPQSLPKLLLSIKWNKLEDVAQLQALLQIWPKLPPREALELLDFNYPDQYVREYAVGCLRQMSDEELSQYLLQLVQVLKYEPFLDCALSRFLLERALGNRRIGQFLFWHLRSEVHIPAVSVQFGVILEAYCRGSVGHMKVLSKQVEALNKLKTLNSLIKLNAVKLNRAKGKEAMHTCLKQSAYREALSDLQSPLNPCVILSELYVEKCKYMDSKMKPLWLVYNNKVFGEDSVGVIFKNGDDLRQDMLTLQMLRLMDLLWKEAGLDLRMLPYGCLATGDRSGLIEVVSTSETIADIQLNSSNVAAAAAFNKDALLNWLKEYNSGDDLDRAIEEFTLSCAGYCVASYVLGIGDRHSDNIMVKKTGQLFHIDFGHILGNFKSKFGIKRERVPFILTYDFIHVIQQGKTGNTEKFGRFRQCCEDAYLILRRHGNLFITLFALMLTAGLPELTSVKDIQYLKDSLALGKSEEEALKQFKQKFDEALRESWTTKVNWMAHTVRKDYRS
Chain of PI3Kβ (P27986 whole entry partner, the tested form may be a part, canonical isoform): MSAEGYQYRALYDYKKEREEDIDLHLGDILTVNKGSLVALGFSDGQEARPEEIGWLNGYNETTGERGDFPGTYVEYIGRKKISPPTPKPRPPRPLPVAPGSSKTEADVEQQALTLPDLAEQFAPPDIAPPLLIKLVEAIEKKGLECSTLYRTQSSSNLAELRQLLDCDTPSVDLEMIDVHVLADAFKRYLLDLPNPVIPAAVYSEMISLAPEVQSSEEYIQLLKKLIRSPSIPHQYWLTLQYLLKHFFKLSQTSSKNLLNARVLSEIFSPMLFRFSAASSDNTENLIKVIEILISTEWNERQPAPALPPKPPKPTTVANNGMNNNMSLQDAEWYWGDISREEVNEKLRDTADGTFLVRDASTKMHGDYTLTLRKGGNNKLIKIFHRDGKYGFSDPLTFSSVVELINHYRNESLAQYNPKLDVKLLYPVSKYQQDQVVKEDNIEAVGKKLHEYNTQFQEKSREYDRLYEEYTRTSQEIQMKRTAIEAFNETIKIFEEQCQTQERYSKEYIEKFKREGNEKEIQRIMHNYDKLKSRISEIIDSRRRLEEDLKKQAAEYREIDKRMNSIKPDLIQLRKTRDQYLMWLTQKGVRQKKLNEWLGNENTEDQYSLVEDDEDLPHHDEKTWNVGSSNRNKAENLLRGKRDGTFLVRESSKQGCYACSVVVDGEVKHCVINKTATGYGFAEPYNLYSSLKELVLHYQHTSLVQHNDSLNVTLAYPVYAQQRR

For the assay, the target named is PI3Kβ (Homo sapiens (Human), UniProt P42338). As to the kind of experiment: TR-FRET enzymatic activity assay, PI3Kβ. Format: biochemical. The following applies: 2× Km ATP, 2 μM PIP2, 30 minutes at 25° C., read-out: IC50-PIP-Beta. How it is done:
The compounds of formula (I) were characterized for their enzymatic activity against the PI3K isoforms. The activities were measured using a time-resolved fluorescence resonance energy transfer (TR-FRET) assay. TR-FRET monitored the formation of 3,4,5-inositol triphosphate molecule that competed with fluorescently labeled PIPS for binding to the GRP-1 pleckstrin homology domain protein.
Class I PI3K isoforms were expressed and purified as heterodimeric recombinant proteins. All assay reagents and buffers for the TR-FRET assay were purchased from Millipore. […] The compounds were added to the assay solution and incubated for 30 minutes at 25° C.
As to `Cc1nc2c(-c3nnc[nH]3)cc(-c3ccnc(C#N)c3)cc2n1-c1ccnc2c(Cl)cccc12` (single isomer, unassigned) [Example 129, 4-(1-(8-chloroquinolin-4-yl)-2-methyl-4-(4H-1,2,4-triazol-3-yl)-1H-benzo[d]imidazol-6-yl)picolinonitrile], the IC50 (as a rule, the midpoint of a concentration-inhibition curve) was found to be 3 nM.

As to `Cc1nc2c(-c3nnc[nH]3)cc(-c3ccnc(C#N)c3)cc2n1-c1ccnc2c(Cl)cccc12` (single isomer, unassigned) [Example 130, 4-(1-(8-chloroquinolin-4-yl)-2-methyl-4-(4H-1,2,4-triazol-3-yl)-1H-benzo[d]imidazol-6-yl)picolinonitrile], the half-maximal inhibitory concentration (IC50) is 57 nM.

Take `Cc1nc2c(-c3nnc[nH]3)cc(-c3ccnc(C#N)c3)cc2n1-c1ccnc2cccc(F)c12` (single isomer, unassigned) [Example 131, 4-(1-(5-fluoroquinolin-4-yl)-2-methyl-4-(4H-1,2,4-triazol-3-yl)-1H-benzo[d]imidazol-6-yl)picolinonitrile]: the IC50 was 2 nM.

`Cc1nc2c(-c3nnc[nH]3)cc(-c3ccnc(C#N)c3)cc2n1-c1ccnc2cccc(F)c12` (single isomer, unassigned) [Example 132, 4-(1-(5-fluoroquinolin-4-yl)-2-methyl-4-(4H-1,2,4-triazol-3-yl)-1H-benzo[d]imidazol-6-yl)picolinonitrile]: the IC50 came to 54 nM.

For the compound `Cc1nc2c(-c3nnc[nH]3)cc(-c3ccnc(F)c3)cc2n1-c1ccnc2c(F)ccc(F)c12` (single isomer, unassigned) [Example 133, 5,8-difluoro-4-(6-(2-fluoropyridin-4-yl)-2-methyl-4-(4H-1,2,4-triazol-3-yl)-1H-benzo[d]imidazol-1-yl)quinoline], the IC50 came out at 2 nM.

As to `Cc1nc2c(-c3nnc[nH]3)cc(-c3ccnc(F)c3)cc2n1-c1ccnc2c(F)ccc(F)c12` (single isomer, unassigned) [Example 134, 5,8-difluoro-4-(6-(2-fluoropyridin-4-yl)-2-methyl-4-(4H-1,2,4-triazol-3-yl)-1H-benzo[d]imidazol-1-yl)quinoline], the IC50 came to 400 nM.

On to `Cc1nc2c(-c3nnc[nH]3)cc(-c3ccnc(C#N)c3)cc2n1-c1ccnc2c(Cl)ccc(F)c12` (single isomer, unassigned) [Example 135, 4-(1-(8-chloro-5-fluoroquinolin-4-yl)-2-methyl-4-(4H-1,2,4-triazol-3-yl)-1H-benzo[d]imidazol-6-yl)picolinonitrile], for which the IC50 is 4 nM.

Take `Cc1nc2c(-c3nnc[nH]3)cc(-c3ccnc(C#N)c3)cc2n1-c1ccnc2c(Cl)ccc(F)c12` (single isomer, unassigned) [Example 136, 4-(1-(8-chloro-5-fluoroquinolin-4-yl)-2-methyl-4-(4H-1,2,4-triazol-3-yl)-1H-benzo[d]imidazol-6-yl)picolinonitrile]: the IC50 worked out at 220 nM.

As to `Cc1nc2c(-c3nnc[nH]3)cc(-c3ccncc3F)cc2n1-c1ccnc2c(Cl)cccc12` (single isomer, unassigned) [Example 137, 8-chloro-4-(6-(3-fluoropyridin-4-yl)-2-methyl-4-(4H-1,2,4-triazol-3-yl)-1H-benzo[d]imidazol-1-yl)quinoline], the IC50 came to 10 nM.

Turning to `Cc1nc2c(-c3nnc[nH]3)cc(-c3ccncc3F)cc2n1-c1ccnc2c(Cl)cccc12` (single isomer, unassigned) [Example 138, 8-chloro-4-(6-(3-fluoropyridin-4-yl)-2-methyl-4-(4H-1,2,4-triazol-3-yl)-1H-benzo[d]imidazol-1-yl)quinoline], the IC50 is 99 nM.

`Cc1nc2c(-c3nnc[nH]3)cc(-c3ccncc3)cc2n1-c1ccnc2c(F)ccc(F)c12` (single isomer, unassigned) [Example 140, 5,8-difluoro-4-(2-methyl-6-(pyridin-4-yl)-4-(4H-1,2,4-triazol-3-yl)-1H-benzo[d]imidazol-1-yl)quinoline]: the IC50 turned out to be 540 nM.
